Drawing on patent US8288367B2, “Substituted estratriene derivatives as 17BETA HSD inhibitors” (Solvay Pharmaceuticals GmBH, priority 2006, dated 2012), this text covers inhibition for ten molecules.

The structures appear in SMILES notation.

One experiment deals with T1, 17β-HSD3 enzyme (Homo sapiens, UniProt P37058).
T1 construct: expressed in transfected cells; host or cells: MCF-7 cell lines stably expressing 17β-HSD3
T1 sequence (P37058 1-310): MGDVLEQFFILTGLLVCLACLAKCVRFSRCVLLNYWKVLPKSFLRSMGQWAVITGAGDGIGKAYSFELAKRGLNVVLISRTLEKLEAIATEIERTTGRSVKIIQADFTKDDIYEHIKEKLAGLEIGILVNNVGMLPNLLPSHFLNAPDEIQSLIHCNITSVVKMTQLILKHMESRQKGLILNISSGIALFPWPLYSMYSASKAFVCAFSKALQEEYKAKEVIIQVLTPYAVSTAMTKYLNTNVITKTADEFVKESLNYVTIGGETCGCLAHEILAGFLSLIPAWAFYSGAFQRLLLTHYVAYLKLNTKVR
The experiment can be described thus: Inhibition of 17β-HSD type 3 enzyme in MCF-7 cells stably expressing 17β-HSD3 (HPLC). The class given is cell-based. Conditions: MCF7, MCF-7 cells expressing 17β-HSD3, 2 nM androstenedione; for inhibition at 1 µM: 1 μM compound; for inhibition at 10 µM: 10 μM compound. The method, then:
The compounds were screened in respect of 17β-HSD3 enzyme activity in vitro on established MCF-7 cell lines, each stably expressing the 17β-HSD3 enzyme. The interconversion of substrate by 17β-HSD3 and the 17β-HSD3 inhibiting activity of chemical compounds in these cell lines were detected by HPLC system.
Varying amounts of the test compounds were incubated in the growth medium of the 17β-HSD3 expressing cells together tritium labeled androstenedione (2 nM). The medium samples were removed after exact incubation time and the reaction is stopped by trichloroacetic acid (TCA). The samples were analyzed by HPLC-coupled flow scintillation analysis.
Conversion: The 17β-HSD3 inhibiting activity of an individual test compound was calculated by comparing the conversion of a control sample without any test compound (referred to as “Negative Control”) to the (reduced) conversion of the test sample containing the particular compound to be tested (referred to as “Test Sample”).

The target of experiment [1] is T2, recombinant human 17β-HSD1 (Homo sapiens, UniProt P14061).
T2 construct: made in house; host or cells: Sf9 insect cells (baculovirus, Bac to Bac Expression System)
T2 sequence (P14061 1-328): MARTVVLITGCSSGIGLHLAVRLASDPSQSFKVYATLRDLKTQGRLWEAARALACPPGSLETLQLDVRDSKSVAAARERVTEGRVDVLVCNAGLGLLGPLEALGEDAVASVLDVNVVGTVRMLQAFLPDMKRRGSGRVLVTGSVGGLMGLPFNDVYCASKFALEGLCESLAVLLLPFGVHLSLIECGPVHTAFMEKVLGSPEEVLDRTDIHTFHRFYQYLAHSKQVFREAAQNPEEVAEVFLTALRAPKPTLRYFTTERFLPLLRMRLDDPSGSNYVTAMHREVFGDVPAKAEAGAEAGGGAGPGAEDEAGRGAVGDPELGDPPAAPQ
Description: Recombinant 17β-HSD1 assay (HPLC, 3H-estrone conversion). Conditions: 30 nM estrone, 1 mM NADPH, 30 min RT, read-out: Inhibition of rec. 17β-HSD1; for inhibition at 0.1 µM: 100 nM compound; for inhibition at 1 µM: 0.5 h, 1 μm compound. The class given is biochemical. The procedure:
17β-HSD1 or 17β-HSD2 purification: Recombinant 17β-HSD1 and 17β-HSD2 baculoviruses were generated by the “Bac to Bac Expression System” (Invitrogen). Recombinant 17β-HSD1 or 17β-HSD2 bacmids were transfected to Sf9 insect cells using “Cellfectin Reagent” (Invitrogen). 60 h later cells were harvested; the fractions including 17β-HSD1 or 17β-HSD2 were isolated as described by Puranen et al. (1994). Aliquots were stored frozen until determination of enzymatic activity.
Recombinant 17β-HSD1 assay: Recombinant protein homogenate (0.1 μg/ml) was incubated in 20 mM KH2PO4 pH 7.4 reaction buffer, including protease inhibitors (Complete Protease Inhibitor Cocktail tablet, Roche Diagnostics, 1697498), with 30 nM estrone (Sigma, E9750) as substrate, 800 000 cpm/ml ^3H-estrone (PerkinElmer, NET319001MC) as a tracer substrate, and 1 mM NADPH (Sigma, N1630) as a co-factor for 30 min at RT, in the presence of potential inhibitors at concentrations of 1 μM or 0.1 μM. Inhibitor stock solutions were prepared in DMSO. The enzyme reaction was stopped by addition of trichloroacetic acid (1% final concentration). Samples were centrifuged in a microtiter plate at 4000 rpm for 10 min. Supernatants were applied to reverse phase HPLC on a Waters Symmetry C18 column, equipped with a Waters Sentry Guard column. Isocratic HPLC runs were performed at RT at a flow rate of 1 ml/min of acetonitrile:water 48:52 as running solvent. Radioactivity was monitored in the eluate by a Packard Flow Scintillation Analyzer. Total radioactivity for estrone and estradiol were determined in each sample and percent inhibition of estradiol conversion by the respective inhibitor was calculated
For the calculation of % inhibition the following formula was used:
[formula] Percent inhibition was calculated as follows: % inhibition=100−% conversion

Experiment [2] addresses T3, recombinant human 17β-HSD2 (Homo sapiens, UniProt P37059).
T3 construct: made in house; host or cells: Sf9 insect cells (baculovirus, Bac to Bac Expression System)
T3 sequence (P37059 1-387): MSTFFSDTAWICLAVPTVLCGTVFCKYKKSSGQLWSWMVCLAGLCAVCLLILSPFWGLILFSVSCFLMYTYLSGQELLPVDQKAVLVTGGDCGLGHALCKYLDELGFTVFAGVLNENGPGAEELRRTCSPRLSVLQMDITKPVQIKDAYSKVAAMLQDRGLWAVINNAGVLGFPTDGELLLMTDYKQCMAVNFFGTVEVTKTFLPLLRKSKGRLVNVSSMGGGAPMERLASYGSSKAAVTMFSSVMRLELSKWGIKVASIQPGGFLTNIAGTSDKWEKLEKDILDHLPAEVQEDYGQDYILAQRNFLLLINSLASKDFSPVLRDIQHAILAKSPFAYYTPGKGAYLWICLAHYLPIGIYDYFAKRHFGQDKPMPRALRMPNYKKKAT
The experiment can be described thus: Recombinant 17β-HSD2 assay (HPLC, 3H-estradiol conversion). The class given is biochemical. As to conditions: 50 nM estradiol, 1 mM β-NAD, read-out: Inhibition of rec. 17β-HSD2; for inhibition at 0.1 µM: 100 nM compound; for inhibition at 1 µM: 1 μm compound. The method, then: 17β-HSD1 or 17β-HSD2 purification: Recombinant 17β-HSD1 and 17β-HSD2 baculoviruses were generated by the “Bac to Bac Expression System” (Invitrogen). Recombinant 17β-HSD1 or 17β-HSD2 bacmids were transfected to Sf9 insect cells using “Cellfectin Reagent” (Invitrogen). 60 h later cells were harvested; the fractions including 17β-HSD1 or 17β-HSD2 were isolated as described by Puranen et al. (1994). Aliquots were stored frozen until determination of enzymatic activity. Recombinant 17β-HSD2 assay: Recombinant 17β-HSD2 assay was performed as described for 17β-HSD1 but with following modifications: 6 μg/ml of recombinant protein homogenate, 50 nM Estradiol (Sigma, E8875) as a substrate, 800 000 cpm/ml ^3H-estradiol (PerkinElmer, NET317) as a tracer substrate and 1 mM β-NAD (Sigma N7004) as a co-factor were used. Total radioactivity for estrone and estradiol were determined in each sample and percent inhibition of estrone conversion by the respective inhibitor was calculated. For the calculation of % inhibition the following formula was used: [formula] Percent inhibition was calculated as follows: % inhibition=100−% conversion

In the case of `Cc1cnc(NC(=O)CC[C@@H]2CC(F)(F)[C@@]3(C)CC[C@@H]4c5ccc(C(N)=O)cc5CC[C@H]4[C@H]23)s1` [Compound 8, 17,17-difluoro-15beta-{3-[(5-methyl-1,3-thiazol-2-yl)amino]-3-oxopropyl}estra-1(10),2,4-triene-3-carboxamide], on 17β-HSD3 enzyme, the inhibition at 1 µM came out at 4% and the inhibition at 10 µM stood at 46%.

Take `C[C@]12CC[C@@H]3c4ccc(B(O)O)cc4CC[C@H]3[C@@H]1[C@@H](CCCC(=O)Nc1ccc3c(c1)OCO3)CC2=O` [Compound 13, [15alpha-[4-(1,3-benzodioxol-5-ylamino)-4-oxobutyl]-17-oxoestra-1(10),2,4-trien-3-yl]boronic acid]: in experiment [1], the inhibition at 0.1 µM is 27% and the inhibition at 1 µM amounted to 52%. Besides, in experiment [2], the inhibition at 0.1 µM is -7.6% and the inhibition at 1 µM was found to be 2%. At 17β-HSD3 enzyme, the inhibition at 1 µM was 18% and the inhibition at 10 µM worked out at 22%.

For the molecule `C[C@]12CC[C@@H]3c4ccc(B(O)O)cc4CC[C@H]3[C@@H]1[C@@H](CCCC(=O)NC1CCCCC1)CC2=O` [Compound 17, [15alpha-[4-(cyclohexylamino)-4-oxobutyl]-17-oxoestra-1(10),2,4-trien-3-yl]boronic acid], the figures for the inhibition at 0.1 µM in experiment [1] and in experiment [2] were 24% and -5.4%, respectively. Moreover, the inhibition at 1 µM worked out at 31% in experiment [1], 1.8% in experiment [2] and 6% at 17β-HSD3 enzyme. Besides, the inhibition at 10 µM on 17β-HSD3 enzyme was 45%.

For the molecule `C[C@]12CC[C@@H]3c4ccc(B(O)O)cc4CC[C@H]3[C@@H]1[C@@H](CCCC(=O)N1CCCCC1)CC2=O` [Compound 20, [17-oxo-15alpha-(4-oxo-4-piperidin-1-ylbutyl)estra-1(10),2,4-trien-3-yl]boronic acid], at 17β-HSD3 enzyme, the inhibition at 1 µM is 15% and the inhibition at 10 µM amounted to 57%.

Turning to `C[C@]12CC[C@@H]3c4ccc(B(O)O)cc4CC[C@H]3[C@@H]1[C@@H](CCCC(=O)NC1CCCCC1)CC2(F)F` [Compound 48, [15alpha-[4-(cyclohexylamino)-4-oxobutyl]-17,17-difluoroestra-1(10),2,4-trien-3-yl]boronic acid], in experiment [1], the inhibition at 0.1 µM came out at 25% and the inhibition at 1 µM amounted to 50%. Moreover, in experiment [2], the inhibition at 0.1 µM came to 6.4% and the inhibition at 1 µM is 12.8%. Further, on 17β-HSD3 enzyme, the inhibition at 1 µM is 13% and the inhibition at 10 µM is 63%.

As to `CCN(CC)C(=O)CCC[C@H]1CC(F)(F)[C@@]2(C)CC[C@@H]3c4ccc(B(O)O)cc4CC[C@H]3[C@H]12` [Compound 49, [15alpha-[4-(diethylamino)-4-oxobutyl]-17,17-difluoroestra-1(10),2,4-trien-3-yl]boronic acid], in experiment [1], the inhibition at 0.1 µM came to 29% and the inhibition at 1 µM worked out at 50%. For the same molecule, in experiment [2], the inhibition at 0.1 µM came out at 7.7% and the inhibition at 1 µM amounted to 11.6%. In addition, at 17β-HSD3 enzyme, the inhibition at 1 µM turned out to be 62% and the inhibition at 10 µM was found to be 89%.

As for `C[C@]12CC[C@@H]3c4ccc(B(O)O)cc4CC[C@H]3[C@@H]1[C@@H](CCCC(=O)NCc1cccnc1)CC2(F)F` [Compound 53, [17,17-difluoro-15alpha-{4-oxo-4-[(pyridin-3-ylmethyl)amino]butyl}estra-1(10),2,4-trien-3-yl]boronic acid], the inhibition at 0.1 µM in experiment [1] came out at 19%; in experiment [2] it was 5%. Further, the inhibition at 1 µM in experiment [1] was found to be 50%; in experiment [2], 8.6%; against 17β-HSD3 enzyme it was 4%. Further, the inhibition at 10 µM against 17β-HSD3 enzyme was 50%.

`C[C@]12CC[C@@H]3c4ccc(B(O)O)cc4CC[C@H]3[C@@H]1[C@@H](CCCC(=O)N1CCCCC1)CC2(F)F` [Compound 57, [17,17-difluoro-15alpha-(4-oxo-4-piperidin-1-ylbutyl)estra-1(10),2,4-trien-3-yl]boronic acid]: on 17β-HSD3 enzyme, the inhibition at 1 µM stood at 28% and the inhibition at 10 µM is 78%.

As to `C[C@]12CC[C@@H]3c4ccc(B(O)O)cc4CC[C@H]3[C@@H]1[C@H](CCC(=O)NCc1ccc3c(c1)OCO3)CC2(F)F` [Compound 60, [15beta-{3-[(1,3-benzodioxol-5-ylmethyl)amino]-3-oxopropyl}-17,17-difluoroestra-1(10),2,4-trien-3-yl]boronic acid], in experiment [1], the inhibition at 0.1 µM stood at 46% and the inhibition at 1 µM was determined as 71%. For the same molecule, in experiment [2], the inhibition at 0.1 µM turned out to be 9.5% and the inhibition at 1 µM came out at 12.5%. At 17β-HSD3 enzyme, the inhibition at 1 µM came out at 28% and the inhibition at 10 µM came to 67%.

In the case of `C[C@]12CC[C@@H]3c4ccc(NCc5ccccc5)cc4CC[C@H]3[C@@H]1[C@@H](CCCC(=O)N1CCOCC1)CC2=O` [Compound 98, 3-(benzylamino)-15alpha-(4-morpholin-4-yl-4-oxobutyl)estra-1(10),2,4-trien-17-one], at 17β-HSD3 enzyme, the inhibition at 1 µM is 15% and the inhibition at 10 µM was 48%.
